The values below come from ChEMBL document CHEMBL3872246, “Synthesis, antioxidant and antichagasic properties of a selected series of hydroxy-3-arylcoumarins” (Bioorg Med Chem, 2017).

Each structure is given as a SMILES string. Calls of active or inactive are those of the source. No cut-off for these calls is given here.

Series [1] deals with Trypanosoma cruzi. The experiment in a line: Antitrypanosomal activity against Trypanosoma cruzi Dm28c epimastigotes at 10 to 100 uM measured after 24 hrs by MTT assay. The class given is functional. Background: Formazan colour is commonly taken as a measure of viable cells.
Series [2] is described as follows: Oxidation potential of compound at group 1 hydroxyl against Ag/Agcl reference electrode at 1 mM by cyclic voltametry. Format: physicochemical. The conditions noted are these: 1000 µM.
The nature of series [3]: Antioxidant activity assessed as photolysis-induced hydroxyl radical scavenging activity at 1 mM measured after 2 mins using DMPO spin trap by ESR spectroscopic method relative to control. Format: functional.
A short description of series [4]: Selectivity index, ratio of IC50 for cytotoxicity against mouse RAW264.7 cells to IC50 for antitrypanosomal activity against epimastigote stage of Trypanosoma cruzi Dm28c. The class given is toxicity, cell-based. The conditions noted are these: read-out: Ratio IC50.
Series [5] in a line: Oxidation potential of compound at group 2 hydroxyl against Ag/Agcl reference electrode at 1 mM by cyclic voltametry.
Series [6] concerns Trypanosoma cruzi. Description: Antitrypanosomal activity against Trypanosoma cruzi Dm28c epimastigotes after 24 hrs by MTT assay. The class given is functional.
Series [7] in a line: Antioxidant activity assessed as AAPH-induced peroxyl radical scavenging activity by measuring ORAC-FL index at 0.5 to 2.5 uM preincubated for 15 mins followed by AAPH addition measured every 1 min for 120 mins by fluorescence assay relative to trolox. The class given is functional.
Series [8] in a line: Cytotoxicity against mouse RAW264.7 cells measured after 4 hrs by MTT assay. Format: toxicity.
The nature of series [9]: Induction of free radical species generation assessed as compound-PBN adduct formation at 1 mM by ESR spectroscopic method. Format: physicochemical. The following applies: 1000 µM.
In series [10] the test system is Trypanosoma cruzi. The experiment in a line: Induction of free radical species generation in microsomes of Trypanosoma cruzi Dm28c epimastigotes spin adduct formation at 5 mM measured after 10 mins using DMPO spin trap by ESR spectroscopic method. The class given is functional.
A short description of series [11]: Oxidation potential of compound against Ag/Agcl reference electrode at 1 mM by cyclic voltametry. Format: physicochemical. The following applies: 1000 µM.
A short description of series [12]: Selectivity index, ratio of IC50 for cytotoxicity against mouse RAW264.7 cells to IC50 for antitrypanosomal activity against trypomastigote stage of Trypanosoma cruzi Dm28c. The following applies: read-out: Ratio IC50. Format: toxicity, cell-based.
Series [13] deals with Trypanosoma cruzi. Description: Potency index, ratio of nifurtimox IC50 to compound IC50 for Trypanosoma cruzi Dm28c epimastigotes. Format: functional.
In series [14] the test system is Trypanosoma cruzi. The experiment in a line: Antitrypanosomal activity against trypomastigote stage of Trypanosoma cruzi Dm28c infected in African green monkey Vero cells assessed as growth inhibition at 20 to 100 uM incubated for 5 to 7 days post infection measured after 24 hrs by MTT assay. The class given is functional, cell-based.
In series [15] the test system is Trypanosoma cruzi. The experiment in a line: Antitrypanosomal activity against trypomastigote stage of Trypanosoma cruzi Dm28c infected in African green monkey Vero cells assessed as growth inhibition incubated for 5 to 7 days post infection measured after 24 hrs by MTT assay. Format: functional, cell-based.
Series [16] relates to Trypanosoma cruzi. Description: Potency index, ratio of nifurtimox IC50 to compound IC50 for Trypanosoma cruzi Dm28c trypamastigotes infected in African green monkey Vero cells. Format: functional.

Broadly, the IC50 is the concentration that inhibits the measured activity by half.

As for `O=c1oc2c(O)c(O)ccc2cc1-c1ccc(O)c(O)c1`, the outcome in series [1] was Active. Further, the Activity was 0.64 V in series [2], 24.3% in series [3], 0.79 V in [5] and 5.38 in [7]. The selectivity ratio in [4] is 2.07. In series [6], the IC50 was determined as 47 µM. Also, the IC50 at 4 h in [8] came out at 97.5 µM.
For `O=c1oc2ccc(O)cc2cc1-c1cccc(O)c1`, the result in [1] was Active. Further, the Activity is 0.8 V in series [2]; 100% in [3]; “Active” in series [9]; 1.17 V in series [5]; 5.47 in [7]. The same compound yielded an IC50 in [6] greater than 100 µM. This compound also displayed an IC50 at 4 h in series [8] greater than 100 µM.
Turning to `O=c1oc2cc(O)cc(O)c2cc1-c1ccccc1`, the outcome in series [1] and in series [10] was Active. In addition, the Activity in [3] is 100%; in [11] it was 1.16 V; in [9] it was “Active”; in series [7], 1.81. Moreover, the selectivity ratio in series [4] is greater than 16.3. Further, in [6], the midpoint of inhibition, the IC50, lay at 6.15 µM. Also, the IC50 at 4 h in [8] is greater than 100 µM.
On to `CC1CS(=O)(=O)CCN1/N=C/c1ccc([N+](=O)[O-])o1` (configuration not stated) [NIFURTIMOX], for which the selectivity ratio in series [12] was found to be 26.3; in series [4], 15.1. The same compound showed an IC50 in [6] of 17.4 µM. In [8], this compound showed an IC50 at 4 h of 263 µM.
As for `O=c1oc2c(O)cccc2cc1-c1ccc(O)c(O)c1`, the result in series [1] was Active. In [4], the selectivity ratio stood at 1.37. The Activity was 0.81 V in series [11] and 4.59 in series [7]. Further, in series [6], half-maximal inhibition (IC50) required 84.3 µM. For the same compound, in series [8], the IC50 at 4 h stood at 115 µM.
Regarding `O=c1oc2cc(O)cc(O)c2cc1-c1cccc(O)c1`, the outcome in series [1] was Active. For the same compound, the Activity result in series [9] was “Active”; in series [7], 1.95. The IC50 in series [6] was greater than 100 µM. This compound came in with a concentration for half-maximal inhibition (IC50) at 4 h in [8] greater than 100 µM.
On to `O=c1oc2ccc(O)cc2cc1-c1ccccc1O`, for which the outcome in series [1] was Active. The Activity was 0.79 V in [11], “Active” in series [9] and 5.3 in series [7]. In series [6], this compound yielded an IC50 greater than 100 µM. Besides, in series [8], the half-inhibitory concentration (IC50) at 4 h is greater than 100 µM.
For `O=c1oc2c(O)c(O)ccc2cc1-c1ccccc1O`, the outcome in series [1], in series [10] and in series [14] was Active. Besides, the “Ratio IC50” value in series [13] is 10 - 13; in [16], “<=13”. In addition, the selectivity ratio in [12] amounted to 1.73; in series [4], 52.6. For the same compound, the Activity amounted to 0.78 V in series [11] and 2.23 in series [7]. Besides, the IC50 in series [6] was 1.31 µM; in [15], 39.7 µM. This compound also displayed an IC50 at 4 h in [8] of 68.9 µM.
On to `O=c1oc2c(O)cccc2cc1-c1cccc(O)c1`, for which the result in series [1] was Active. Further, the Activity is 0.74 V in series [11] and 3.12 in series [7]. The compound also came in with an IC50 in series [6] greater than 100 µM. In addition, in [8], the IC50 at 4 h is greater than 100 µM.
On to `O=c1oc2c(O)c(O)ccc2cc1-c1ccccc1`, for which the result in series [1] and in series [10] was Active. Moreover, the selectivity ratio in series [4] worked out at 2.93. For the same compound, the Activity in series [11] was 0.81 V; in [7] it was 1.11. The same compound returned an IC50 in [6] of 8.9 µM. In series [8], this compound displayed an IC50 at 4 h of 26.1 µM.
For `O=c1oc2c(O)c(O)ccc2cc1-c1cccc(O)c1`, the result in series [1] was Active. In addition, the Activity in series [3] worked out at 26.1%; in [11] it was 0.81 V; in [7], 2.95. For the same compound, the selectivity ratio in [4] was determined as 13.9. The compound also returned an IC50 in series [6] of 28.6 µM. Further, the IC50 at 4 h in series [8] is 398 µM.
